Measurements published in ChEMBL document CHEMBL1201862, “PubChem BioAssay data set” (2004).
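Five concentrations, 48 hours, 96-well plates. GI50 is the concentration that inhibits growth by half.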 Active and inactive are the calls of the source. Rule as the data show it: active = GI50 up to about 1.1 µM and inactive = higher.

Columns and labels:
Assay in all cases: growth of human tumour cells (NCI), 48 h
RXF 393 = test system: RXF 393
NCI-H226 = test system: NCI-H226
BT-549 = test system: BT-549
ACHN = test system: ACHN
NCI-H23 = test system: NCI-H23
NCI-H460 = test system: NCI-H460
SK-MEL-2 = test system: SK-MEL-2
786-0 = test system: 786-0
SF-268 = test system: SF-268
TK-10 = test system: TK-10
HL-60 = test system: HL-60
M14 = test system: M14
U-251 = test system: U-251
T47D = test system: T47D
LOX IMVI = test system: LOX IMVI
OVCAR-4 = test system: OVCAR-4
SF-295 = test system: SF-295
OVCAR-3 = test system: OVCAR-3
SNB-75 = test system: SNB-75
SK-OV-3 = test system: SK-OV-3
UO-31 = test system: UO-31
SW-620 = test system: SW-620
IGROV-1 = test system: IGROV-1
SNB-19 = test system: SNB-19
SK-MEL-5 = test system: SK-MEL-5
COLO 205 = test system: COLO 205
RPMI-8226 = test system: RPMI-8226
MDA-MB-435 = test system: MDA-MB-435
NCI-H522 = test system: NCI-H522
EKVX = test system: EKVX
PC-3 = test system: PC-3
KM12 = test system: KM12
HCC 2998 = test system: HCC 2998
HOP-62 = test system: HOP-62
SN12C = test system: SN12C
UACC-62 = test system: UACC-62
CAKI-1 = test system: CAKI-1
DU-145 = test system: DU-145
MOLT-4 = test system: MOLT-4
HOP-92 = test system: HOP-92
OVCAR-8 = test system: OVCAR-8
HCT-116 = test system: HCT-116
UACC-257 = test system: UACC-257
MDA-N = test system: MDA-N
Hs-578T = test system: Hs-578T
NCI/ADR-RES = test system: NCI/ADR-RES
CCRF-CEM = test system: CCRF-CEM
A498 = test system: A498
K562 = test system: K562
SR = test system: SR
HCT-15 = test system: HCT-15
HT-29 = test system: HT-29
Malme-3M = test system: Malme-3M
MDA-MB-231 = test system: MDA-MB-231
A549 = test system: A549
SK-MEL-28 = test system: SK-MEL-28
OVCAR-5 = test system: OVCAR-5
MCF7 = test system: MCF7
SF-539 = test system: SF-539

Measured: GI50

Nc1ccc(-c2nc3ccccc3s2)cc1CO
61.8 µM: HCT-15
active: NCI-H226 < 0.01 µM | A498 < 0.01 µM
inactive: RXF 393 > 100 µM | BT-549 47.3 µM | ACHN 13.5 µM | NCI-H23 60.5 µM | NCI-H460 68.4 µM | SK-MEL-2 > 85.7 µM | 786-0 > 100 µM | SF-268 > 73.5 µM | TK-10 > 100 µM | HL-60 39 µM | M14 64.6 µM | U-251 > 76.4 µM | T47D 33.2 µM | LOX IMVI 84.3 µM | OVCAR-4 > 39.2 µM | SF-295 36.5 µM | OVCAR-3 > 100 µM | SNB-75 > 100 µM | SK-OV-3 > 100 µM | UO-31 10.5 µM | SW-620 > 100 µM | IGROV-1 > 68.5 µM | SNB-19 50.6 µM | SK-MEL-5 49.4 µM | COLO 205 > 100 µM | RPMI-8226 49.1 µM | MDA-MB-435 > 87.5 µM | NCI-H522 52.8 µM | EKVX 7.46 µM | PC-3 66.8 µM | KM12 41.7 µM | HCC 2998 > 100 µM | HOP-62 31.5 µM | SN12C 45.8 µM | UACC-62 6.79 µM | CAKI-1 2.9 µM | DU-145 > 94.8 µM | MOLT-4 16.5 µM | HOP-92 > 54.8 µM | OVCAR-8 > 77.6 µM | HCT-116 74.6 µM | UACC-257 > 87.7 µM | MDA-N > 86.3 µM | Hs-578T > 83.6 µM | NCI/ADR-RES > 79.8 µM | CCRF-CEM > 51.2 µM | K562 6.05 µM | SR > 84.3 µM | HT-29 > 100 µM | Malme-3M > 100 µM | MDA-MB-231 > 70 µM | A549 > 58.7 µM | SK-MEL-28 > 100 µM

O=C(CC1(O)CCCCC1)OC1CCCC1
inactive: RXF 393 > 100 µM | NCI-H226 > 100 µM | BT-549 > 100 µM | ACHN > 100 µM | NCI-H23 > 100 µM | NCI-H460 > 100 µM | SK-MEL-2 > 100 µM | 786-0 > 100 µM | SF-268 > 100 µM | TK-10 > 100 µM | M14 > 100 µM | U-251 > 100 µM | T47D > 100 µM | LOX IMVI > 100 µM | OVCAR-4 > 100 µM | SF-295 > 100 µM | OVCAR-3 > 100 µM | SNB-75 > 100 µM | SK-OV-3 > 100 µM | UO-31 > 100 µM | IGROV-1 > 100 µM | SNB-19 > 100 µM | SK-MEL-5 > 100 µM | COLO 205 > 100 µM | MDA-MB-435 > 100 µM | NCI-H522 > 100 µM | EKVX > 100 µM | PC-3 > 100 µM | KM12 > 100 µM | HOP-62 > 100 µM | SN12C > 100 µM | UACC-62 > 100 µM | OVCAR-5 > 100 µM | CAKI-1 > 100 µM | MCF7 > 100 µM | DU-145 > 100 µM | HOP-92 > 100 µM | OVCAR-8 > 100 µM | HCT-116 > 100 µM | UACC-257 > 100 µM | MDA-N > 100 µM | Hs-578T > 100 µM | NCI/ADR-RES > 100 µM | A498 > 100 µM | HT-29 > 100 µM | Malme-3M > 100 µM | SF-539 > 100 µM | MDA-MB-231 > 100 µM | A549 > 100 µM
> 100 µM: HCT-15

Cc1ccc(S(=O)(=O)NC(=O)NC(CO)C(=O)O)cc1 (stereo not drawn)
> 100 µM: HCT-15
inactive: RXF 393 > 100 µM | BT-549 > 100 µM | ACHN > 100 µM | NCI-H23 > 100 µM | NCI-H460 > 100 µM | SK-MEL-2 > 100 µM | 786-0 > 100 µM | SF-268 > 100 µM | TK-10 > 100 µM | HL-60 > 100 µM | M14 > 100 µM | U-251 > 100 µM | T47D > 100 µM | LOX IMVI > 100 µM | OVCAR-4 > 100 µM | SF-295 > 100 µM | SNB-75 > 100 µM | SK-OV-3 > 100 µM | UO-31 > 100 µM | SW-620 > 100 µM | IGROV-1 > 100 µM | SNB-19 > 100 µM | SK-MEL-5 > 100 µM | COLO 205 > 100 µM | RPMI-8226 > 100 µM | NCI-H522 > 100 µM | PC-3 > 100 µM | KM12 > 100 µM | HOP-62 > 100 µM | SN12C > 100 µM | UACC-62 > 100 µM | OVCAR-5 > 100 µM | MCF7 > 100 µM | DU-145 > 100 µM | MOLT-4 > 100 µM | HOP-92 > 100 µM | OVCAR-8 > 100 µM | HCT-116 > 100 µM | UACC-257 > 100 µM | MDA-N > 100 µM | Hs-578T > 100 µM | NCI/ADR-RES > 100 µM | CCRF-CEM > 100 µM | K562 > 100 µM | SR > 100 µM | HT-29 > 100 µM | Malme-3M > 100 µM | SF-539 > 100 µM | MDA-MB-231 > 100 µM | A549 > 100 µM | SK-MEL-28 > 100 µM
